Peptide text beside a SMILES is read from it. * marks the point of attachment. Cbz = O=C(OCc1ccccc1)*
Assays:
[1] = tested on: active β-Catenin in ESCs; assay: Western analysis of active β-Catenin in ESCs; format: cell-based
Description: Gapdh antibody was used as a loading control. h, head; ht, heart tube; Con, control; N1 KD, Notch1 siRNA; N1-4 KD, Notch 1-4 siRNA.

[2] = tested on: β-Catenin in SW480 cells; assay: Western analysis of β-Catenin in SW480 cells; format: cell-based, human
Method: (§1) Cells were scraped off the 100-mm dish and lysed in 1 ml of lysis buffer (1 mM PMSF, 1 mM EDTA, 10 mM Tris-HCl, 0.1% Triton X100, 1× Complete Protease Inhibitor Cocktail (Roche) in PBS). The lysates were spun down, and 1 μg of anti-c-Myc antibody (Sigma, M4439) or anti-Flag antibody (Sigma, F1804) was added to 500 μl of the supernatant. A 50-50 mixture of protein A Sepharose (Amersham) and protein G Sepharose (Amersham) was added to the lysate/antibody mixture for immunoprecipitation for 1 hour. The resulting outputs were washed with lysis buffer and subjected to western blot analysis. For western blotting, samples were analyzed using antibodies against active-β-Catenin (anti-ABC, Millipore), phospho-β-Catenin (Ser33/37/Thr41, Cell Signaling), β-Catenin (sc-1496, Santa Cruz Biotechnology) and Gapdh (Santa Cruz Biotechnology).
(§2) FIGS. 5A-I. γ-Secretase Inhibitors (GSIs) Suppress Expansion of Human Colon Cancer Cells by Blocking Notch Cleavage (A) Western analysis of active β-Catenin in SW480 colon cancer cells transfected with control or siRNA against Notch1-4 (100 nM each). (B) Relative β-Catenin/TCF activity of SW480 cells treated with increasing doses of DAPT for 96 h. (C) Western analysis of β-Catenin levels in SW480 and a second colon cancer cell line, HT-29, treated with increasing doses (0, 25, 50 or 100 μM) of DAPT for 96 h. (D) Relative number of SW480 cells treated with DAPT (50 or 100 μM) for 72 h. (E) Western analysis of active β-Catenin levels in SW480 cells with increasing DAPT in the presence or absence of proteasome inhibitor (PI) MG-132 (5 nM) for 72 h. […] (F) Notch/RBP-J activity of SW480 cells treated with increasing doses of Ibuprofen. Notch/RBP-J activity was measured by transfecting cells with a luciferase reporter downstream of multiple RBP-J sites. (G) Relative β-Catenin/TCF activity of SW480 cells treated with Ibuprofen for 72 h. (H) Western analysis of active β-Catenin in SW480 cells treated with Ibuprofen for 72 h. (I) Western analysis of active β-Catenin in SW480 cells transfected with Notch1-4 (100 nM each) siRNA and treated with or without ibuprofen. Gapdh antibody was used as a loading control. All luciferase values were normalized to Renilla activity and represent n=4. *, P<0.01. Con, control; N1-4 KD, Notch 1-4 siRNA.

[3] = tested on: β-Catenin/TCF activity in SW480 cells; assay: β-Catenin/TCF luciferase activity in SW480 cells; format: cell-based, human
Method: (§3) For Notch, RBP-J or Numb/Numbl knockdown experiments, Notch1-4, RBPSUH or Numb/Numbl On-TARGETplus SMARTpool (Dharmacon L-041110, L-044202, L-047867, L-046498, L-007772 or L-046935/L-046983) or Block-iT Alexa Fluor Red (46-5, 318, Invitrogen) was used at concentrations of 50, 100, or 200 nM for cell transfection. Tethered and truncated forms of Notch1 constructs were kindly provided by Drs. R. Kopan (Washington University, St. Louis, Mo.) and M. Nakafuku (Cincinnati Children's Hospital, Cincinnati, Ohio), respectively. Cells were transfected with Lipofectamine LTX (Invitrogen) or Lipofectamine 2000 (Invitrogen) in single-cell suspensions. For gene expression analysis, qPCR was performed with the ABI Prism system (7900HT, Applied Biosystems) with the following primers: β-Catenin (Mm01350394_m1), Cyclin D1 (Mm00432359_m1), Gapdh (Mm99999915_g1). All samples were run at least in triplicate. Real-time quantitative PCR data were normalized and standardized with SDS2.2 software. […]
(§4) FIGS. 5A-I. γ-Secretase Inhibitors (GSIs) Suppress Expansion of Human Colon Cancer Cells by Blocking Notch Cleavage (A) Western analysis of active β-Catenin in SW480 colon cancer cells transfected with control or siRNA against Notch1-4 (100 nM each). […] Notch/RBP-J activity was measured by transfecting cells with a luciferase reporter downstream of multiple RBP-J sites. […]

[4] = tested on: Notch/RBP-J activity in SW480 cells; assay: Notch/RBP-J-dependent luciferase activity in SW480 cells; format: cell-based, human; settings: SW480, increasing doses of Ibuprofen
Method: as §3, §4

[5] = tested on: SW480 cells; assay: Relative number of SW480 cells (cell expansion); format: cell-based, human; settings: SW480 (FIG. 5D), DAPT 50 or 100 μM, 72 h; text names SW480 and HT-29
Method: as §2, with “Con, control; N1-4 KD, Notch 1-4 siRNA.” left out

[6] = tested on: β-Catenin/TCF activity in ESCs; assay: β-Catenin/TCF-directed luciferase reporter (Topflash) in ESCs; format: cell-based; settings: increasing doses of DAPT, 72-96 h
Method: as §3, with “For gene expression analysis, qPCR was performed with the ABI Prism system (7900HT, Applied Biosystems) with the following primers: β-Catenin (Mm01350394_m1), Cyclin D1 (Mm00432359_m1), Gapdh (Mm99999915_g1). All samples were run at least in triplicate.” left out
FIGS. 1A-F. Notch Negatively Regulates Active β-Catenin in Stem Cells Independently of RBP-J (A) Western analysis of ESCs transfected with control or Notch1 (N1) siRNA (50 or 100 nM) with active β-Catenin (Act β-Cat) antibody that detects N-terminal-dephosphorylated β-Catenin. (B and C) Relative β-Catenin/TCF-directed luciferase activity in ESCs (B) or neural stem cells (NSCs) (C) transfected with control siRNA or siRNA against Notch1 or Notch1-4. β-Catenin/TCF activity was measured by co-transfecting cells with a luciferase reporter downstream of multiple TCF binding sites (Topflash). […]

[7] = tested on: β-Catenin in HT-29 cells; assay: Western analysis of β-Catenin in HT-29 cells; format: cell-based, human; settings: HT-29, DAPT 0, 25, 50 or 100 μM, 96 h
Method: as §1
FIGS. 5A-I. γ-Secretase Inhibitors (GSIs) Suppress Expansion of Human Colon Cancer Cells by Blocking Notch Cleavage (A) Western analysis of active β-Catenin in SW480 colon cancer cells transfected with control or siRNA against Notch1-4 (100 nM each). (B) Relative β-Catenin/TCF activity of SW480 cells treated with increasing doses of DAPT for 96 h. […] Notch/RBP-J activity was measured by transfecting cells with a luciferase reporter downstream of multiple RBP-J sites. […]

[8] = tested on: hESCs, NSCs and bone marrow mesenchymal stem cells; assay: β-Catenin activity and protein in other stem cells; format: cell-based; settings: increasing doses of DAPT, 72-96 h
Description: (§5) FIGS. 3A-I. Membrane-Bound Notch Negatively Regulates Active β-Catenin Levels in Stem Cells (A) Schematic representation of wildtype Notch1 and cleavage site-mutated tethered forms of Notch1 (V1744K and V1774L). […] (C) BIO-treated ESCs transfected with WT or mutant Notch1 constructs and, immunoprecipitated (IP) with anti-Myc antibody and immunoblotted (IB) with β-Catenin antibody. Notch1 expression was detected with anti-Myc antibody. Arrowheads indicate cleaved Notch1. (D) Western analysis of active β-Catenin in ESCs transfected with WT or mutant Notch1 constructs. (E) Relative β-Catenin/TCF activity of ESCs and NSCs treated with increasing doses of DAPT for 72-96 h. (F) Western analysis of active β-Catenin in ESCs, NSCs, and bone marrow mesenchymal stem cells (MSCs) treated with increasing doses (0, 25, 50 or 100 μM) of DAPT for 72-96 h. (G) Relative number of ESCs after treatment with DAPT (50 or 100 μM) for 48 h. (H) Relative expression of Cyclin D1 mRNA in ESCs transfected with control (LacZ) or tethered Notch (V1774L) and cultured for 72 h. (I) Relative expression of Brachyury, Nestin and Sox17 mRNA in ESCs maintained without LIF for 72 h after transfection with control (LacZ) or tethered Notch (V1774L); *, P<0.01; NS, not significant. […] Con, control.

[9] = tested on: ESCs; assay: Relative number of ESCs after treatment; format: cell-based; settings: DAPT 50 or 100 μM, 48 h
Description: as §5

Compound: O=C1Nc2cc(Br)ccc2/C1=C1/Nc2ccccc2/C1=N\O [BIO, 6-bromoindirubin-3′-oxime]
- active β-Catenin levels ([1]; BIO 2 μM): greatly increases

Compound: CC(C)C[C@@H](C=O)NC(=O)[C@H](CC(C)C)NC(=O)[C@H](CC(C)C)NC(=O)OCc1ccccc1 [MG-132] (Cbz-Leu-Leu-Leu-aldehyde)
- active β-Catenin levels ([2]; SW480, proteasome inhibitor MG-132 (5 nM), 72 h): higher levels of β-Catenin

Compound: CC(C)Cc1ccc(C(C)C(=O)O)cc1 (centres unmarked) [Ibuprofen]
- active β-Catenin transcriptional activity ([3]; SW480, Ibuprofen, 72 h): lowered
- canonical Notch transcriptional activity (Notch/RBP-J-dependent luciferase activity) [4]: dose-dependent decrease
- active β-Catenin protein ([2]; SW480, Ibuprofen, 72 h): lowered
- reduction of β-Catenin protein levels after knockdown of Notch1-4 ([2]; SW480 transfected with Notch1-4 siRNA (100 nM each), with or without ibuprofen): not observed

Compound: C[C@H](NC(=O)Cc1cc(F)cc(F)c1)C(=O)N[C@H](C(=O)OC(C)(C)C)c1ccccc1 [DAPT, N—[N-(3,5-difluorophenacetyl)-L-alanyl]-S-phenylglycine t-butyl ester]
- cell expansion (relative cell number) [5]: dose-dependent decrease
- active β-Catenin activity (relative β-Catenin/TCF activity) [6]: significant reduction
- TCF/β-Catenin-dependent transcriptional activity ([3]; SW480 (FIG. 5B), increasing doses of DAPT, 96 h, text names SW480 and HT-29): dose-dependent decrease
- β-Catenin protein [7]: dose-dependent decrease
- active β-Catenin protein levels ([1]; DAPT 0, 25, 50 or 100 μM, 72-96 h): significant reduction
- β-Catenin protein ([2]; SW480, DAPT 0, 25, 50 or 100 μM, 96 h): dose-dependent decrease
- active β-Catenin activity and protein levels [8]: trend was also observed
- cell numbers [9]: significant decrease
